System: ATF4 luciferase reporter in HEK293T cells
Test: ATF4-Luc assay (ATF4 luciferase reporter, tunicamycin-treated HEK293T cells)
Type: cell-based, human
Conditions: Homo sapiens, HEK-293T; HEK293T cells carrying the ATF4 luciferase reporter, 1 μg/mL tunicamycin, 7 hours

Row | SMILES | EC50
1 | CN(C(=O)COc1ccc(Cl)c(Cl)c1)C12CC(NC(=O)COc3ccc(F)c(Cl)c3)(C1)C2 [Compound 197, N-{3-[2-(3-chloro-4-fluorophenoxy)acetamido]bicyclo[1.1.1]pentan-1-yl}-2-(3,4-dichlorophenoxy)-N-methylacetamide] | 50 to 250 nM
2 | O=C(COc1ccc(C(F)(F)F)c(F)c1)NC12CCC(NC(=O)COc3ccc(Cl)c(F)c3)(CC1)[C@@H](O)C2 [Compound 849, 2-(4-chloro-3-fluorophenoxy)-N-[(2S)-4-{2-[3-fluoro-4-(trifluoromethyl)phenoxy]acetamido}-2-hydroxybicyclo[2.2.2]octan-1-yl]acetamide] | < 10 nM
3 | O=C(COc1ccc(Cl)c(F)c1)NC12CCC(NC(=O)COc3cccc(F)c3)(CC1)[C@@H](O)C2 [Compound 659, 2-(4-chloro-3-fluorophenoxy)-N-{(3S)-4-[2-(3-fluorophenoxy)acetamido]-3-hydroxybicyclo[2.2.2]octan-1-yl}acetamide] | < 10 nM
4 | O=C(COc1cncc(C(F)(F)F)c1)NC12CCC(NC(=O)COc3ccc(Cl)c(F)c3)(C1)C2 [Compound 355, 2-(4-chloro-3-fluorophenoxy)-N-[4-(2-{[5-(trifluoromethyl)pyridin-3-yl]oxy}acetamido)bicyclo[2.1.1]hexan-1-yl]acetamide] | 50 to 250 nM
5 | O=C(COc1ccc(Cl)c(F)c1)NC12CCC(NC(=O)Cc3cccnc3)(CC1)C(O)C2 (centres unmarked) [Compound 324, 2-(4-chloro-3-fluorophenoxy)-N-{3-hydroxy-4-[2-(pyridin-3-yl)acetamido]bicyclo[2.2.2]octan-1-yl}acetamide] | > 2000 nM
6 | O=C(COc1ccc(C(F)(F)F)cc1)NC12CCC(NC(=O)COc3ccc(Cl)c(F)c3)(CC1)[C@@H](O)C2 [Compound 468, 2-(4-chloro-3-fluorophenoxy)-N-[(2S)-2-hydroxy-4-{2-[4-(trifluoromethyl)phenoxy]acetamido}bicyclo[2.2.2]octan-1-yl]acetamide] | < 10 nM
7 | Cc1ccc(OCC(=O)NC23CC(NC(=O)COc4ccc(Cl)c(F)c4)(C2)C3)c(F)n1 [Compound 245, 2-(4-chloro-3-fluorophenoxy)-N-(3-{2-[(2-fluoro-6-methylpyridin-3-yl)oxy]acetamido}bicyclo[1.1.1]pentan-1-yl)acetamide] | 10 to 50 nM
8 | O=C(COCCc1ccc(Cl)cc1)NC12CC(NC(=O)COc3ccc(Cl)c(Cl)c3)(C1)C2 [Compound 155, 2-[2-(4-chlorophenyl)ethoxy]-N-{3-[2-(3,4-dichlorophenoxy)acetamido]bicyclo-[1.1.1]pentan-1-yl}acetamide] | 10 to 50 nM
9 | O=C(COc1ccc(F)c(OC(F)F)c1)NC12CCC(NC(=O)COc3ccc(Cl)c(F)c3)(CC1)[C@@H](O)C2 [Compound 808, 2-(4-chloro-3-fluorophenoxy)-N-[(2S)-4-{2-[3-(difluoromethoxy)-4-fluorophenoxy]acetamido}-2-hydroxybicyclo[2.2.2]octan-1-yl]acetamide] | < 10 nM
10 | O=C(COc1cc(F)c2cn[nH]c2c1)NC12CCC(NC(=O)COc3ccc(F)c(F)c3)(CC1)[C@@H](O)C2 [Compound 728, 2-(3,4-difluorophenoxy)-N-[(2S)-4-{2-[(4-fluoro-1H-indazol-6-yl)oxy]acetamido}-2-hydroxybicyclo[2.2.2]octan-1-yl]acetamide] | < 10 nM
11 | Cc1ccc(OCC(=O)NC23CCC(NC(=O)COc4ccc(Cl)cc4)(CC2)[C@@H](O)C3)cc1 [Compound 787, 2-(4-chlorophenoxy)-N-{(2S)-2-hydroxy-4-[2-(4-methylphenoxy)acetamido]bicyclo[2.2.2]octan-1-yl}acetamide] | < 10 nM
12 | O=C(COc1ccc2ccccc2c1)NC12CCC(NC(=O)COc3ccc(Cl)c(F)c3)(CC1)[C@@H](O)C2 [Compound 472, 2-(4-chloro-3-fluorophenoxy)-N-[(2S)-2-hydroxy-4-{2-[(naphthalen-2-yl)oxy]acetamido}bicyclo[2.2.2]octan-1-yl]acetamide] | < 10 nM
13 | O=C(COc1ccc(F)c(F)c1)NC12CCC(NC(=O)COc3ccc(C(F)(F)F)c(F)c3)(CC1)[C@@H](O)C2 [Compound 833, 2-(3,4-difluorophenoxy)-N-[(3S)-4-{2-[3-fluoro-4-(trifluoromethyl)phenoxy]acetamido}-3-hydroxybicyclo[2.2.2]octan-1-yl]acetamide] | < 10 nM
14 | O=C(CNc1ccc(Cl)cc1)NC12CC(NC(=O)COc3ccc(Cl)c(F)c3)(C1)C2 [Compound 203, N-{3-[2-(4-chloro-3-fluorophenoxy)acetamido]bicyclo[1.1.1]pentan-1-yl}-N^2-(4-chlorophenyl)glycinamide] | 50 to 250 nM
15 | Cc1cccc(COCC(=O)NC23CC(NC(=O)COc4ccc(Cl)c(Cl)c4)(C2)C3)c1 [Compound 162, 2-(3,4-dichlorophenoxy)-N-(3-{2-[(3-methylphenyl)methoxy]-acetamido}bicyclo[1.1.1]pentan-1-yl)acetamide] | 10 to 50 nM
16 | Cc1cc(OCC(=O)NC23CCC(NC(=O)COc4ccc(F)cc4)(CC2)[C@@H](O)C3)ccc1F [Compound 817, 2-(4-fluoro-3-methylphenoxy)-N-{(3S)-4-[2-(4-fluorophenoxy)acetamido]-3-hydroxybicyclo[2.2.2]octan-1-yl}acetamide] | < 10 nM

Row | SMILES | EC50
17 | O=C(COCCc1cccc(Cl)c1)NC12CC(NC(=O)COc3ccc(Cl)c(F)c3)(C1)C2 [Compound 133, 2-(4-chloro-3-fluorophenoxy)-N-(3-{2-[2-(3-chlorophenyl)ethoxy]acetamido}-bicyclo[1.1.1]pentan-1-yl)acetamide] | 50 to 250 nM
18 | O=C(COc1ccc(Cl)c(F)c1)NC12CC(NC(=O)CC(=O)c3ccc(Cl)cc3)(C1)C2 [Compound 293, N-{3-[2-(4-chloro-3-fluorophenoxy)acetamido]bicyclo[1.1.1]pentan-1-yl}-3-(4-chlorophenyl)-3-oxopropanamide] | 250 to 500 nM
19 | O=C(COc1ccc(Cl)c(F)c1)NC12CCC(NC(=O)COc3ccc(Cl)c(F)c3)(CC1)C(O)C2O (centres unmarked) [Compound 548, N,N′-(2,3-dihydroxybicyclo[2.2.2]octane-1,4-diyl)bis[2-(4-chloro-3-fluorophenoxy)acetamide]] | < 10 nM
20 | COCC1CC2(NC(=O)COc3ccc(Cl)c(F)c3)CCC1(NC(=O)COc1ccc(Cl)c(F)c1)CC2 (centres unmarked) [Compound 716, N,N′-[2-(methoxymethyl)bicyclo[2.2.2]octane-1,4-diyl]bis[2-(4-chloro-3-fluorophenoxy)acetamide]] | 10 to 50 nM
21 | O=C(COn1nnc2cccnc21)NC12CCC(NC(=O)COc3ccc(Cl)c(F)c3)(CC1)C(=O)N2 [Compound 691, 2-(4-chloro-3-fluorophenoxy)-N-(3-oxo-1-{2-[(3H-[1,2,3]-triazolo[4,5-b]pyridin-3-yl)oxy]acetamido}-2-azabicyclo[2.2.2]octan-4-yl)acetamide] | > 2000 nM
22 | O=C(COc1ccc(Cl)c(F)c1)N[C@@H]1[C@@H]2CC[C@@](NC(=O)COc3ccc(Cl)c(F)c3)(C2)C[C@@H]1O (racemic) [Compound 638, rac-N,N′-[(1R,3S,4R,5R)-3-hydroxybicyclo[3.2.1]octane-1,4-diyl]bis[2-(4-chloro-3-fluorophenoxy)acetamide]] | < 10 nM
23 | Cc1ccc(OCC(=O)NC23CCC(NC(=O)COc4ccc5c(C)n[nH]c5c4)(CC2)[C@@H](O)C3)cc1 [Compound 746, N-{(2S)-2-hydroxy-4-[2-(4-methylphenoxy)acetamido]bicyclo[2.2.2]octan-1-yl}-2-[(3-methyl-1H-indazol-6-yl)oxy]acetamide] | 10 to 50 nM
24 | O=C(COc1cccnc1)NC12CCC(NC(=O)COc3ccc(Cl)c(F)c3)(CC1)[C@@H](O)C2 [Compound 607, 2-(4-chloro-3-fluorophenoxy)-N-[(2S)-2-hydroxy-4-{2-[(pyridin-3-yl)oxy]acetamido}bicyclo[2.2.2]octan-1-yl]acetamide] | 50 to 250 nM
25 | O=C(COCc1ccccc1)NC12CC(NC(=O)COc3ccc(Cl)cc3)(C1)C2 [Compound 208, 2-(benzyloxy)-N-{3-[2-(4-chlorophenoxy)acetamido]bicyclo[1.1.1]pentan-1-yl}acetamide] | 50 to 250 nM
26 | Cc1cc(CC(=O)NC23CCC(NC(=O)COc4ccc(Cl)c(F)c4)(CC2)C(O)C3)on1 (centres unmarked) [Compound 423, 2-(4-chloro-3-fluorophenoxy)-N-{2-hydroxy-4-[2-(3-methyl-1,2-oxazol-5-yl)acetamido]bicyclo[2.2.2]octan-1-yl}acetamide] | > 2000 nM
27 | CC(C)(O)C1CC2(NC(=O)COc3ccc(Cl)c(F)c3)CCC1(NC(=O)COc1ccc(Cl)c(F)c1)CC2 (centres unmarked) [Compound 566, N,N′-[2-(2-hydroxypropan-2-yl)bicyclo[2.2.2]octane-1,4-diyl]bis[2-(4-chloro-3-fluorophenoxy)acetamide]] | 10 to 50 nM
28 | COc1ncc(OCC(=O)NC23CCC(NC(=O)COc4ccc(F)c(F)c4)(CC2)[C@@H](O)C3)cn1 [Compound 634, 2-(3,4-difluorophenoxy)-N-[(2S)-2-hydroxy-4-{2-[(2-methoxypyrimidin-5-yl)oxy]acetamido}bicyclo[2.2.2]octan-1-yl]acetamide] | 50 to 250 nM
29 | O=C(COc1ccc2c(c1)OC(F)(F)O2)NC12CC(NC(=O)COc3cnc(C(F)F)cn3)(C1)C2 [Compound 383, 2-[(2,2-difluoro-2H-1,3-benzodioxol-5-yl)oxy]-N-[3-(2-{[5-(difluoromethyl)pyrazin-2-yl]oxy}acetamido)bicyclo[1.1.1]pentan-1-yl]acetamide] | > 2000 nM
30 | Cc1cccc(OCC(=O)NC23CCC(NC(=O)COc4ccc(Cl)c(F)c4)(CC2)C[C@@H]3O)c1 [Compound 509, 2-(4-chloro-3-fluorophenoxy)-N-{(3S)-3-hydroxy-4-[2-(3-methylphenoxy)acetamido]bicyclo[2.2.2]octan-1-yl}acetamide] | < 10 nM
31 | O=C(COc1ccc(Cl)c(F)c1)NC12CC(NC(=O)Cc3ccc(C(F)(F)F)cc3)(C1)C2 [Compound 341, 2-(4-chloro-3-fluorophenoxy)-N-(3-{2-[4-(trifluoromethyl)phenyl]acetamido}bicyclo[1.1.1]pentan-1-yl)acetamide] | 50 to 250 nM
32 | Cc1cc(OCC(=O)NC23CCC(NC(=O)COc4ccc(Cl)c(F)c4)(CC2)C[C@@H]3O)cc(C)n1 [Compound 395, 2-(4-chloro-3-fluorophenoxy)-N-[(3S)-4-{2-[(2,6-dimethylpyridin-4-yl)oxy]acetamido}-3-hydroxybicyclo[2.2.2]octan-1-yl]acetamide] | 500 to 2000 nM

Reference: patent US20240166652A1, “MODULATORS OF THE INTEGRATED STRESS PATHWAY” (Calico Life Sciences LLC, priority 2017, published 2024)
